Laboratory results published in BindingDB's records for patent US20250074895 (Blueprint Medicines, 2025).

Assays:
[1] = molecular target: Cyclin-dependent kinase 2/G1/S-specific cyclin-E1 (Homo sapiens, UniProt P24941); experiment: Biochemical CDK Inhibition Assay
Experimental: (§1) nhibitory effects of the compounds of the disclosure were measured in biochemical assays that measure the enzymatic phosphorylation activity of CDK enzyme in complex of Cyclin proteins phosphorylates 7.5 micromolar fluorescently labelled peptide substrate, 5-FAM-QSPKKG-CONH2, (FL-Peptide 18, Perkin Elmer, 760362) in the presence of adenosine-5′-triphosphate (ATP) and varying concentrations of the test compound in 100 mM 2-[4-(2-hydroxyethyl)piperazin-1-yl]ethanesulfonic acid (HEPES), pH 7.5, 10 mM MgCl2, 0.015% Brij-35, 1 mM dithiothreitol (DTT), 1.0% dimethylsulfoxide (DMSO). Assays were performed at 1.0 mM ATP or at ATP Km of the CDK enzymes in complex with Cyclin proteins. Reactions proceeded until between 10% to 20% total peptides were phosphorylated at room temperature (25° C.) and were terminated with 35 mM 2,2′,2″,2′″-(ethane-1,2-diyldinitrilo)tetraacetic acid (EDTA). Product was detected using the Caliper mobility shift detection method where the phosphorylated peptide (product) and substrate were electrophoretically separated and measured. Percent activity was plotted against log concentration of compound and points to generate an apparent IC50. The following CDK enzymes in complex with different cyclin proteins were used in these assays:CDK1/Cyclin B1, GST-tag (BPS, 40454), 1.5 nM used in the assayCDK2/Cyclin E (Eurofins, 14-475), 1.25 nM used in the assays

[2] = molecular target: Cyclin-dependent kinase/G2/mitotic-specific cyclin- 1 (Homo sapiens, UniProt P06493); experiment: Biochemical CDK Inhibition Assay
Sequence of Cyclin-dependent kinase/G2/mitotic-specific cyclin- 1 (P06493 whole entry): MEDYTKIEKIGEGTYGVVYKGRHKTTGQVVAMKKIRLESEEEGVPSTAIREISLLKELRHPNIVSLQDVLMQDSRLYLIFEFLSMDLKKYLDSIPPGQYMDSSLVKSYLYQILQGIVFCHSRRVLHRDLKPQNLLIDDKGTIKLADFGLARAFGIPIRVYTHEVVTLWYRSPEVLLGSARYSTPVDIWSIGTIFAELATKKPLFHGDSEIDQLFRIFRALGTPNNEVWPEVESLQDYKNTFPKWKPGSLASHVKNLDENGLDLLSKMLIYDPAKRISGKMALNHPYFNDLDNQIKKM
Sequence of Cyclin-dependent kinase/G2/mitotic-specific cyclin- 1 (P14635 whole entry, further chain): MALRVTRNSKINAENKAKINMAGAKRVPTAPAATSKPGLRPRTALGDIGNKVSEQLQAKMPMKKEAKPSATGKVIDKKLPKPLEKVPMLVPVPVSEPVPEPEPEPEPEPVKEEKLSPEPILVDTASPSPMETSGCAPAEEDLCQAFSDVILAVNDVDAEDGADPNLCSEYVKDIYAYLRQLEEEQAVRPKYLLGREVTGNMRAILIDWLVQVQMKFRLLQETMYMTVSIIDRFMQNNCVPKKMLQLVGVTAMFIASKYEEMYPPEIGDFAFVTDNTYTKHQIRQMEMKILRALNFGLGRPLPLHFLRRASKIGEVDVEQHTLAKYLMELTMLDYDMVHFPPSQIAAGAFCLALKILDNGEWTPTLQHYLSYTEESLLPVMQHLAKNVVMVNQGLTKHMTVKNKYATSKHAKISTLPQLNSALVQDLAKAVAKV
Experimental: as §1

**Q.** Which results are given for `C[C@H](O)c1cnc(Nc2cc([C@H]3CC[C@@H](OC(=O)N4CCC4(C)C)C3)[nH]n2)cn1` [US20250074895, Compound 52]?
**A.** IC50 [1]: < 0.01 µM; IC50 [2]: < 0.1 µM

**Q.** `COc1nncc(Nc2cc([C@H]3CC[C@@H](OC(=O)NC4(C)CC4)C3)[nH]n2)n1` [US20250074895, Compound 54] was tested. Which IC50 [1] did it give?
**A.** < 0.01 µM

**Q.** And the IC50 [2]?
**A.** < 0.1 µM

**Q.** Which IC50 [1] does the source give for `CC1(NC(=O)O[C@@H]2CC[C@H](c3cc(Nc4cnc(CO)cn4)n[nH]3)C2)CC1` [US20250074895, Compound 55] here?
**A.** < 0.01 µM

**Q.** And the IC50 [2]?
**A.** < 0.1 µM

**Q.** What does the source list for `CC1(NC(=O)O[C@H]2CC[C@@H](c3cc(Nc4cnccn4)n[nH]3)C2)CC1` [US20250074895, Compound 57]?
**A.** IC50 [1]: < 0.01 µM; IC50 [2]: < 0.1 µM

**Q.** Which IC50 [1] does the source give for `COc1nccc(Nc2cc([C@@H]3CC[C@H](OC(=O)NC4(C)CC4)C3)[nH]n2)n1` [US20250074895, Compound 58] here?
**A.** < 0.01 µM

**Q.** What about the IC50 [2] of the same molecule?
**A.** < 0.1 µM
